In article PMC10958470 (Virus Research, 2024):
pIC50: −log10 of the molar value. Where “and” joins values, the source holds several entries; their conditions need not be identical. Equal values may be shown once. Where a name gives a salt, the structure may show the parent alone. Read-outs that look alike come from different tables or passages of the source.

How the values were obtained:
[1] = molecular target: SARS-CoV-2 RdRp nsp12/7/8 complex (Severe acute respiratory syndrome coronavirus 2, UniProt P0DTD1); test: biochemical; format: biochemical; settings: for pIC50: read-out: RdRp IC50; for IC50: RdRp IC50 [µM]; for inhibition at 20 µM: read-out: RdRp Inhibition [%] 20 µM (PS Inhibition RdRp [%])
[2] = molecular target: SARS-CoV-2 helicase (nsp13) (Severe acute respiratory syndrome coronavirus 2, UniProt P0DTD1); test: biochemical; format: biochemical
[3] = molecular target: SARS-CoV-2 nsp13 NTPase activity (Severe acute respiratory syndrome coronavirus 2, UniProt P0DTD1); test: biochemical; format: biochemical; settings: for inhibition at 20 µM: read-out: ATPase inhibition [%] 20 µM (HC Helicase ATPase inhibition [%])
SARS-CoV-2 helicase = SARS-CoV-2 helicase (Severe acute respiratory syndrome coronavirus 2, UniProt P0DTD1); format: binding
RdRp complex = RdRp complex (Severe acute respiratory syndrome coronavirus 2, UniProt P0DTD1); format: binding, SARS-CoV-2
[4] = read-out: Helicase Inhibition [%] 20 µM (PS Inhibition Helicase [%])
[5] = read-out: DTT Helicase unwinding inhibition [%] 2.5 µM triplicates
[6] = read-out: Helicase unwinding inhibition 2.5 µM triplicates

Compound	RdRp Inhibition [%] 20 µM (PS Inhibition RdRp [%]) [1]	Helicase Inhibition [%] 20 µM (PS Inhibition Helicase [%]) [2]	PicoGreen effect [%] 20 µM (annealed dsDNA substrate)	IC50 [1]	inhibition at 20 µM [1]	inhibition at 20 µM [2, 4]	other results
O=c1c(O)c(-c2ccc(O)cc2O)oc2cc(O)cc(O)c12 [morin hydrate (aurantica), morin hydrate]	95.67%	39.33%	20.36%				pIC50 [1]: 5.22
C=CCn1c(CSc2ccccc2[N+](=O)[O-])n[nH]c1=S [SSYA10-001]							inhibition of helicase unwinding activity in presence of DTT [2]: effectively eliminated the inhibition; inhibition of helicase NTPase activity, absence of DTT [3]: inhibits NTPase activity only in the absence of DTT
CCOc1ccc2nc3cc(N)ccc3c(N)c2c1 [ethacridine lactate]			32.09%	9.96 µM	80.3%	35.5%	
O=C1OC2(c3cc(I)c(O)c(I)c3Oc3c2cc(I)c(O)c3I)c2c(Cl)c(Cl)c(Cl)c(Cl)c21 [rose-bengal-lactone]	99.44%	−2.61%	35.69%				
tyrphostin-AG-835	84.15%	7.56%	11.5%				pIC50 [1]: 5.02
O=C(O)c1ccccc1Nc1ccc(CCc2ccc(Cl)c(Cl)c2)cc1 [PD-118057]	81.81%	7.76%	11.19%				pIC50 [1]: < 4.70
FPA-124	7.70%		−3.30%				DTT nsp13 inhibition [%] 20 µM (DTT HC Helicase inhibition [%]) [2]: 64.76%
N#C/C(=C\c1ccc(O)c(O)c1)C(=O)OCCc1cccs1 [2-TEDC]	97.86%	8.66%	7.15%				pIC50 [1]: 5.10
Cc1cc(N)c2ccccc2[n+]1CCCCCCCCCC[n+]1c(C)cc(N)c2ccccc21 [dequalinium chloride]			−4.04%	4.07 µM	94.6%	25.6%	
O=C(Nc1ccc2c(O)cc(S(=O)(=O)[O-])cc2c1)Nc1ccc2c(O)cc(S(=O)(=O)[O-])cc2c1.[Na+].[Na+] [disodium 7,7′-(carbonyldiimino) bis(4-hydroxy-2-naphthalenesulfonate)]	90.5%	84.75%					pIC50 [1]: < 4.70; DTT Helicase unwinding inhibition [%] 2.5 µM triplicates [2]: 6.27%; DTT nsp13 inhibition [%] 20 µM (DTT HC Helicase inhibition [%]) [2]: 65.72%; pIC50 ([2]; read-out: DTT Helicase IC50): < 4.70; DTT Helicase ATPase activity PLUS DNA substrate 2 µM [3]: 103.05; DTT Helicase ATPase activity [%] 2 µM [3]: 103.17%
O=C(N/N=C/c1ccc([N+](=O)[O-])o1)c1cc([N+](=O)[O-])cc([N+](=O)[O-])c1O [nifursol]			8.54%	11.5 µM	100%	5.5%	
Nc1ncnc2c1ncn2[C@@H]1O[C@H](COP(=O)(O)OP(=O)(O)OP(=O)(O)O)[C@@H](O)[C@H]1O [ATP, adenosine triphosphate]							apparent Kmapp (RdRp substrates) [1]: 102.7 µM; Kmapp (mM) ATP, - DTT [2]: 1.9 mM
O=C(O[C@@H]1Cc2c(O)cc(O)cc2O[C@@H]1c1cc(O)c(O)c(O)c1)c1cc(O)c(O)c(O)c1 [(−)-epigallocatechin gallate]	85.49%					96.4%	DTT nsp13 inhibition [%] 20 µM (DTT HC Helicase inhibition [%]) [2]: 78.10%; inhibition at 2.5 µM [2, 5]: 73.5%; DTT Helicase ATPase activity PLUS DNA substrate 2 µM [3]: 31.66; DTT Helicase ATPase activity [%] 2 µM [3]: 43.42%; gain of ATPase activity reduction in the presence of dsDNA substrate [3]: 10–15%; Helicase Tm °C 20 µM (SARS-CoV-2 helicase): 38.4 °C; Helicase Tm °C 100 µM (SARS-CoV-2 helicase): 39.6 °C; effect on helicase Tm (SARS-CoV-2 helicase): did not result in a Tm change
OC[C@H]1O[C@H]([S-])[C@H](O)[C@@H](O)[C@@H]1O.[Au+] [aurothioglucose]	4.77%	100.73%	13.9%				DTT nsp13 inhibition [%] 20 µM (DTT HC Helicase inhibition [%]) [2]: 98.65%; pIC50 ([2]; read-out: DTT Helicase IC50): 4.98; pIC50 ([2]; read-out: Helicase IC50): 5.71; ATPase inhibition [%] 20 µM (HC Helicase ATPase inhibition [%]) [3]: 106.07%
CC1=NN(c2ccc(C)c(C)c2)C(=O)/C1=N\Nc1cccc(-c2cccc(C(=O)O)c2)c1O [eltrombopag olamine]			21.05%	4.29 µM	95.2%	3.09%	RdRp Tm °C 20 µM (RdRp complex): 41.5 °C; RdRp Tm °C 100 µM (RdRp complex): 43.6 °C
COc1cc(NC(C)CCCN)c2ncccc2c1 (centres unmarked) [primaquine phosphate]			1.58%	6.56 µM	102%	7.17%	
Cc1c(Cl)c(C)[n+]([O-])c(Cl)c1-c1noc(-c2cc(O)c(O)c([N+](=O)[O-])c2)n1 [opicapone]			6.86%		17.9%		DTT nsp13 inhibition [%] 20 µM (DTT HC Helicase inhibition [%]) [2]: 51.40%; IC50 ([2]; DTT Helicase IC50 [µM]): 25.5 µM; IC50 ([2]; Helicase IC50 [µM]): 1.1 µM; inhibition at 20 µM ([2]; read-out: DTT nsp13 inhibition [%] 20 µM (DTT HC Helicase inhibition [%])): > 50%; inhibition at 20 µM [3]: 96.9%
CC(C)c1ccccc1Cc1cc(C(=O)Nc2ccc(S(=O)(=O)c3ccccc3C(C)(C)C)cc2)c(O)c(O)c1O [TW-37]	89.4%	3.76%	3.9%				pIC50 [1]: 4.86
O=C(c1cc(O)c(O)c(O)c1)c1ccc(O)c(O)c1O [exifone]			8.87%		36.6%	100%	DTT Helicase unwinding inhibition [%] 2.5 µM triplicates [2]: 99.91%; inhibition at 2.5 µM [2, 5]: 99.9%; inhibition at 2.5 µM [2, 6]: 49.9%; DTT Helicase ATPase activity PLUS DNA substrate 2 µM [3]: 2.64; DTT Helicase ATPase activity [%] 2 µM [3]: 14.53%; Helicase ATPase activity PLUS DNA substrate 2 µM [3]: 4.96; Helicase ATPase activity [%] 2 µM [3]: 11.33%; gain of ATPase activity reduction in the presence of dsDNA substrate [3]: 10–15%; remaining NTPase activity [3]: 14.5%; inhibition at 20 µM [3]: 104%; Helicase Tm °C 20 µM (SARS-CoV-2 helicase): 38.3 °C; Helicase Tm °C 100 µM (SARS-CoV-2 helicase): 37.8 °C; effect on helicase Tm (SARS-CoV-2 helicase): decrease in Tm
CC1(C)C(/C=C/C=C/C=C/C=C2\N(CCCCS(=O)(=O)O)c3ccc4ccccc4c3C2(C)C)=[N+](CCCCS(=O)(=O)[O-])c2ccc3ccccc3c21 [cardiogreen]	4.44%		26.52%				DTT Helicase unwinding inhibition [%] 2.5 µM triplicates [2]: 65% and 65.01%; DTT nsp13 inhibition [%] 20 µM (DTT HC Helicase inhibition [%]) [2]: 94.06%; Helicase unwinding inhibition 2.5 µM triplicates [2]: 66.59; pIC50 ([2]; read-out: DTT Helicase IC50): 5.41; pIC50 ([2]; read-out: Helicase IC50): 5.45; ATPase inhibition [%] 20 µM (HC Helicase ATPase inhibition [%]) [3]: 97.11%; DTT Helicase ATPase activity PLUS DNA substrate 2 µM [3]: 51.49; DTT Helicase ATPase activity [%] 2 µM [3]: 60.43%; Helicase ATPase activity PLUS DNA substrate 2 µM [3]: 32.88; Helicase ATPase activity [%] 2 µM [3]: 45.65%; gain of ATPase activity reduction in the presence of dsDNA substrate [3]: 10–15%; remaining NTPase activity [3]: 60.4%
O=C(O)c1cc(/N=N/c2ccc(O)c(C(=O)O)c2)ccc1O [olsalazine sodium]			12.75%	14.4 µM	84.7%		
O=C(O)c1c(Cl)c(Cl)c(Cl)c(Cl)c1-c1c2cc(I)c(=O)c(I)c-2oc2c(I)c(O)c(I)cc12 [rose bengal sodium salt]			30.91%	> 20 µM	98%	21.5%	
OCCOCCN1CCN(C(c2ccccc2)c2ccc(Cl)cc2)CC1 (centres unmarked) [hydroxyzine pamoate]			1.28%	16.5 µM	76.8%	4.28%	
CO[C@H](C(=O)[C@@H](O)[C@@H](C)O)[C@@H]1Cc2cc3cc(O[C@H]4C[C@@H](O[C@H]5C[C@@H](O)[C@H](O)[C@@H](C)O5)[C@H](O)[C@@H](C)O4)c(C)c(O)c3c(O)c2C(=O)[C@H]1O[C@H]1C[C@@H](O[C@H]2C[C@@H](O[C@H]3C[C@](C)(O)[C@H](O)[C@@H](C)O3)[C@@H](O)[C@@H](C)O2)[C@H](O)[C@@H](C)O1 [plicamycin (mithramycin), plicamycin]			−3.94%		6.39%	95.8%	DTT Helicase unwinding inhibition [%] 2.5 µM triplicates [2]: 71.99%; DTT nsp13 inhibition [%] 20 µM (DTT HC Helicase inhibition [%]) [2]: 98.09%; mode of helicase inhibition towards dsDNA substrate [2]: competitive mode of inhibition towards the dsDNA substrate; IC50 ([2]; DTT Helicase IC50 [µM]): 1.35 µM; IC50 ([2]; Helicase IC50 [µM]): 3.57 µM; inhibition at 2.5 µM [2, 5]: 72%; inhibition at 2.5 µM [2, 6]: 39%; DTT Helicase ATPase activity PLUS DNA substrate 2 µM [3]: 133.03; DTT Helicase ATPase activity [%] 2 µM [3]: 114.66%; Helicase ATPase activity PLUS DNA substrate 2 µM [3]: 159.86; Helicase ATPase activity [%] 2 µM [3]: 125.71%; remaining NTPase activity [3]: 114.6%; inhibition at 20 µM [3]: 19.8%; Helicase Tm °C 20 µM (SARS-CoV-2 helicase): 38.3 °C; Helicase Tm °C 100 µM (SARS-CoV-2 helicase): 38.9 °C; effect on helicase Tm (SARS-CoV-2 helicase): did not result in a Tm change
CN(C)[C@@H]1C(O)=C(C(N)=O)C(=O)[C@@]2(O)C(O)=C3C(=O)c4c(O)cccc4[C@@](C)(O)[C@H]3[C@H](O)[C@@H]12 [oxytetracycline]			19.99%	16.1 µM	100%	16.4%	
C=C1c2cccc(O)c2C(=O)C2=C(O)[C@]3(O)C(=O)C(C(N)=O)=C(O)[C@@H](N(C)C)[C@@H]3[C@@H](O)[C@H]12 [methacycline hydrochloride]			25.54%	6.43 µM	120%	25.2%	
